Data as given in US7994321B2, “Substituted thieno[3,2-C]pyridine-7-carboxylic acid derivatives” (Hoffmann-La Roche Inc., priority 2006, dated 2011).

Molecular target: T1, Human recombinant EE-tagged PDGFRβ (Homo sapiens, UniProt P09619)
T1 construct: made in house; host or cells: Sf9 cells
Experiment: PDGFRβ IMAP Kinase Assay (fluorescence polarization)
Assay type: biochemical
Details: Kinase Enzyme Inhibition Assay; IMAP FP; FITC-labeled peptide substrate, ATP; 60 minutes at room temperature
Text: The assay uses IMAP Fluorescence polarization (FP) assay platform based on the high affinity binding of phosphate by immobilized metal coordination complexes. The substrate used in this assay is a Fitc labeled peptide: FITC-ALTSNQEYLDLSMPL. Upon substrate peptide's phosphorylation, the IMAP binding reagent complexes with phosphate groups on phosphopeptides generated in the PDGFRβ reaction, which causes a change in the rate of the molecular motion of the peptide, and results in an increase in the FP values.
• Enzyme: Human recombinant EE-tagged PDGFRβ, expressed in Sf9 cells (stock concentration 74.5 μM, from Protein Biochemistry, RDT); store at −80° C. • Substrate: Synthesized Fitc labeled peptide: FITC-ALTSNQEYLDLSMPL; store at −20° C. • Positive Control Staurosporine (1 mM stock in DMSO, Calbiochem) • Robotic System Workstation: Tomtec Quadra • Reader: Acquest 384.1356 (Molecular Devices); FP reading method • Assay Plate: BD Falcon 30-μL 384 assay plate (Cat # 353972), and Costar 384 black plate (Cat # 3710) Assay Procedures: (1) Prepare Assay Buffer-MOPS Buffer: 20 mM MOPS (Teknova) pH 7.1, 5 mM sodium acetate, 6.25 mM MgCl2, 0.5 mM EDTA, 1 mM DTT, 0.04 mM NaVO4, 0.02% BSA. (2) Prepare Substrate Mix containing peptide (1 μM) and ATP (48.6 μM) in assay buffer. Add 8 μL of Substrate Mix in BD Falcon assay plates. (3) Prepare PDGFRβ (0.2 μM) in assay buffer. (4) Dilute compounds and positive control in DMSO (40 fold, 4-pt in series). Add 18 μL/well of assay buffer into 384 polypropylene compound plates containing 2 μL of compound solution in each well, mix and transfer 4 μl/well of diluted solution into the BD Falcon assay plates containing 8 μL of Substrate Mix (step 2) in each well. Then add 4 μl/well of PDGFRβ solution (step 3) in all wells except blank wells. Add 4 μl/well of assay buffer into blank wells. (5) Incubate at room temperature for 60 minutes. (6) Prepare 1:400 IMAP bead mix following the instruction given in the IMAP Bead Binding System Kit (Molecular Devices), and add 30 μl/well of IMAP bead mix in Costar 384 black plates. (7) Transfer 2 μl/well of reaction solution (step 4-5) into Costar 384 black plates containing 30 μl/well of bead mix (step 6). (8) Incubate at RT for 2 hours. (9) Read FP values at 485 nm and 530 nm on Acquest.
Kinase Enzyme Inhibition Assay (IC50)

T1 sequence (P09619 33-1106): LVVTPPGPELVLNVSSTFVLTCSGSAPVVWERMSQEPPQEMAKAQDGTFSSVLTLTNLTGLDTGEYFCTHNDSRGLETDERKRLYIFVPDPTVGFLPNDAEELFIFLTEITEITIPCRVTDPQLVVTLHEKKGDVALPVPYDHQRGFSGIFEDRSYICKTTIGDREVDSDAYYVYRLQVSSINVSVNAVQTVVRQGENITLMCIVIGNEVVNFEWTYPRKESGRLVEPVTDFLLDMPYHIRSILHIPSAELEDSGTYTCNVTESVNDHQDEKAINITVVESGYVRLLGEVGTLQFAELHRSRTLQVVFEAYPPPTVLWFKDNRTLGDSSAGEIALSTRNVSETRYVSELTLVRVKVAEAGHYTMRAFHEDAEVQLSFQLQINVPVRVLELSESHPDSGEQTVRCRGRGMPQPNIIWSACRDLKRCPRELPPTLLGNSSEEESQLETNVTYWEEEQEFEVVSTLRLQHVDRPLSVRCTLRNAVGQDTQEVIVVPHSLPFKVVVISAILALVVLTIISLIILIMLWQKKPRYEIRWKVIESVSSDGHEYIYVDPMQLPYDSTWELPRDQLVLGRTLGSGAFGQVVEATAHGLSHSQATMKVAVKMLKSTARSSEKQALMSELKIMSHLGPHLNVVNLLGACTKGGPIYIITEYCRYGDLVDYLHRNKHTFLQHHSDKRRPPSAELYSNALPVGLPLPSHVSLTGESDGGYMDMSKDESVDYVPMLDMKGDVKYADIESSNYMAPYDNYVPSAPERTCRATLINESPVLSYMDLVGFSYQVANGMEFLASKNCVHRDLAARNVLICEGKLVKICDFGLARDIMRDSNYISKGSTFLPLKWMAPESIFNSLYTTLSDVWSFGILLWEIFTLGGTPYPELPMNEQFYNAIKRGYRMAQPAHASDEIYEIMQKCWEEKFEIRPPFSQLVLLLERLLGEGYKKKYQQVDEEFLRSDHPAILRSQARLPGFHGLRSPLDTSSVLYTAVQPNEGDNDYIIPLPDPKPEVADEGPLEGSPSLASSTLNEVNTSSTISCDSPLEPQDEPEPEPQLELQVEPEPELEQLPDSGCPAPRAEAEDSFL

Row | SMILES | IC50
1 | O=C(Nc1cccc(OCc2csc3c(C(=O)NCCO)cncc23)c1)c1ccccc1 [Example 7, 3-(3-Benzoylamino-phenoxymethyl)-thieno[3,2-c]pyridine-7-carboxylic acid (2-hydroxy-ethyl)-amide] | 990 nM
2 | CCOC(=O)c1cncc2c(COc3cccc(NC(=O)c4ccc(F)cc4)c3)csc12 [Example 8, 3-[3-(4-Fluoro-benzoylamino)-phenoxymethyl]-thieno[3,2-c]pyridine-7-carboxylic acid ethyl ester] | 340 nM
3 | CCOC(=O)c1cncc2c(COc3cccc(NC(=O)c4cccc(OC)c4)c3)csc12 [Example 13, 3-[3-(3-Methoxy-benzoylamino)-phenoxymethyl]-thieno[3,2-c]pyridine-7-carboxylic acid ethyl ester] | 440 nM
4 | O=C(Nc1cccc(OCc2csc3c(C(=O)NCCO)cncc23)c1)c1cccc(Cl)c1 [Example 16, 3-[3-(3-Chloro-benzoylamino)-phenoxymethyl]-thieno[3,2-c]pyridine-7-carboxylic acid (2-hydroxy-ethyl)-amide] | 113 nM
5 | COc1cccc(C(=O)Nc2ccc(C)c(OCc3csc4c(C(=O)NCCO)cncc34)c2)c1 [Example 31, 3-[5-(3-Methoxy-benzoylamino)-2-methyl-phenoxymethyl]-thieno[3,2-c]pyridine-7-carboxylic acid (2-hydroxy-ethyl)-amide] | < 20000 nM
